Measured values from paper PMC8362273 (Molecular cell, 2020).
“Also recorded” adds a separate entry of the source. Like-named read-outs stand apart in the source and are kept apart here.

What was measured:
Gsk(K383A) = type: biochemical, E. coli; conditions: Figure 2F, S4A
Gsk [1] = conditions: ref Kawasaki et al., 2000, cited from earlier work; for Km: Mori et al., 1995
[2] = molecular target: Gsk (inosine-guanosine kinase) (Escherichia coli, UniProt P0AEW6); experiment: Isothermal titration calorimetry; type: binding, E. coli
Gsk [3] = experiment: Inosine/guanosine kinase; type: biochemical, E. coli
Gsk [4] = experiment: Inosine kinase; type: biochemical, E. coli; conditions: GuaB-coupled assay (Figure 1C)
GuaB (IMP dehydrogenase) = experiment: IMP-dehydrogenase; type: biochemical, E. coli; conditions: ppGpp up to 1 mM (Figure S1B)
[5] = molecular target: PurA (adenylosuccinate synthase) (Escherichia coli, UniProt P0A7D4); experiment: ITC of ppGpp with PurA; type: binding, E. coli
PurA (adenylosuccinate synthase), sequence (P0A7D4 whole entry): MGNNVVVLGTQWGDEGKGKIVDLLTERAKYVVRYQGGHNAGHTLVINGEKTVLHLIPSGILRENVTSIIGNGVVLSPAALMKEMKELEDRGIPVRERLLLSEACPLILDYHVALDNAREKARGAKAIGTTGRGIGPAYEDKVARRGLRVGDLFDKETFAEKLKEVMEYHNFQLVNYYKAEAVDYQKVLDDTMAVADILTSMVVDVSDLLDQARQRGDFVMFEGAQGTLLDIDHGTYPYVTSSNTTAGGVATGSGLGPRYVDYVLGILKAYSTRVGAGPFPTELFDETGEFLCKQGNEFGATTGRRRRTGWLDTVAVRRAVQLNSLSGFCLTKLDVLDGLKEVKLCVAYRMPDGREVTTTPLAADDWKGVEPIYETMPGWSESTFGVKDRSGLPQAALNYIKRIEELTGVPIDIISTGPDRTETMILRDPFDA

[6] = test system: Gsk variants R7A, F321A, K383A, S393A, Q396A; conditions: each of R7A, in vitro (Figure 2G)
SEC-MALS [7] = molecular target: the molecule itself; experiment: SEC-MALS
SEC-MALS [8] = molecular target: the molecule itself; experiment: SEC-MALS; remark: listed apart in the source
dynamic light scattering = molecular target: the molecule itself; experiment: dynamic light scattering
crystal structure = molecular target: the molecule itself; experiment: crystal structure

Nc1nc2c(ncn2[C@@H]2O[C@H](COP(=O)(O)OP(=O)(O)O)[C@@H](O)[C@H]2O)c(=O)[nH]1 [GDP]
sensitivity of Gsk(K383A) to inhibitor (Gsk(K383A)): completely insensitive | feedback inhibition of Gsk (Gsk [1]): provides feedback inhibition

Nc1nc2c(ncn2[C@@H]2O[C@H](COP(=O)(O)OP(=O)(O)OP(=O)(O)O)[C@@H](OP(=O)(O)OP(=O)(O)O)[C@H]2O)c(=O)[nH]1 [pppGpp, Guanosine pentaphosphate]
affinity for Gsk ([2]; ITC (Figure S2I, Table S1), compared with ppGpp): much weaker affinity

O=c1[nH]cnc2c1ncn2[C@@H]1O[C@H](CO)[C@@H](O)[C@H]1O [inosine]
Km (Gsk [1]; read-out: Km of Gsk for inosine): 1500 µM

Nc1nc2c(ncn2[C@@H]2O[C@H](CO)[C@@H](O)[C@H]2O)c(=O)[nH]1 [guanosine]
gain in binding heat for guanosine when Gsk is bound to ppGpp ([2]; ITC, Gsk saturated with ppGpp vs without): 8.7 kcal/mol | Km (Gsk [1]; read-out: Km of Gsk for guanosine): 8 µM

Nc1nc2c(ncn2[C@@H]2O[C@H](COP(=O)(O)OP(=O)(O)O)[C@@H](OP(=O)(O)OP(=O)(O)O)[C@H]2O)c(=O)[nH]1 [ppGpp, Guanosine tetraphosphate]
Kd [2]: 0.1 µM | affinity for Gsk relative to that for GDP (fold stronger) ([2]; ITC): about 20 fold | gain in binding heat of ppGpp when Gsk is bound to guanosine ([2]; ITC, Gsk pre-saturated with guanosine vs without): 10.8 kcal/mol | type of inhibition with respect to ATP (Gsk [3]; 1 mM inosine, varied ATP-Mg): mixed-type inhibitor | type of inhibition with respect to inosine (Gsk [3]; Lineweaver-Burk plotting, 5 mM ATP-Mg, varied inosine): counter-competitive, or cooperative, inhibitor | fold inhibition of Gsk by ppGpp binding (Gsk [3]; guanosine kinase activity, 50 nM Gsk (Figure 3J)): ~ 60 fold | inhibition of inosine- and guanosine-kinase activities of Gsk (Gsk [3]; in vitro, PK-LDH coupled (Figure S1A)): potently inhibited | inhibition of inosine-kinase activity compared with GDP (Gsk [4]): stronger inhibitor than GDP | inhibition of GuaB (GuaB (IMP dehydrogenase)): did not observe substantial inhibition; also recorded: could not reproduce the inhibition | Kd [5]: 61 µM | sensitivity of Gsk(K383A) to inhibitor (Gsk(K383A)): completely insensitive | loss of sensitivity to ppGpp inhibition (fold less sensitive than WT Gsk) [6]: at least 5 fold

B1: Gsk, inosine-guanosine kinase (E. coli), wild type, traceless after Sumo release (enzyme, UniProt P0AEW6 1-434, looked up)
chain: MKFPGKRKSKHYFPVNARDPLLQQFQPENETSAAWVVGIDQTLVDIEAKVDDEFIERYGLSAGHSLVIEDDVAEALYQELKQKNLITHQFAGGTIGNTMHNYSVLADDRSVLLGVMCSNIEIGSYAYRYLCNTSSRTDLNYLQGVDGPIGRCFTLIGESGERTFAISPGHMNQLRAESIPEDVIAGASALVLTSYLVRCKPGEPMPEATMKAIEYAKKYNVPVVLTLGTKFVIAENPQWWQQFLKDHVSILAMNEDEAEALTGESDPLLASDKALDWVDLVLCTAGPIGLYMAGFTEDEAKRKTQHPLLPGAIAEFNQYEFSRAMRHKDCQNPLRVYSHIAPYMGGPEKIMNTNGAGDGALAALLHDITANSYHRSNVPNSSKHKFTWLTYSSLAQVCKYANRVSYQVLNQHSPRLTRGLPEREDSLEESYWDR
stoichiometry N (SEC-MALS [7]): 2 | stoichiometry N (SEC-MALS [8]): 4

B2: Gsk(L308S) (enzyme, E. coli, UniProt P0AEW6 1-434, looked up)
chain: MKFPGKRKSKHYFPVNARDPLLQQFQPENETSAAWVVGIDQTLVDIEAKVDDEFIERYGLSAGHSLVIEDDVAEALYQELKQKNLITHQFAGGTIGNTMHNYSVLADDRSVLLGVMCSNIEIGSYAYRYLCNTSSRTDLNYLQGVDGPIGRCFTLIGESGERTFAISPGHMNQLRAESIPEDVIAGASALVLTSYLVRCKPGEPMPEATMKAIEYAKKYNVPVVLTLGTKFVIAENPQWWQQFLKDHVSILAMNEDEAEALTGESDPLLASDKALDWVDLVLCTAGPIGLYMAGFTEDEAKRKTQHPSLPGAIAEFNQYEFSRAMRHKDCQNPLRVYSHIAPYMGGPEKIMNTNGAGDGALAALLHDITANSYHRSNVPNSSKHKFTWLTYSSLAQVCKYANRVSYQVLNQHSPRLTRGLPEREDSLEESYWDR
stoichiometry N (dynamic light scattering): 2

B3: Gsk, inosine-guanosine kinase (E. coli), crystallisation construct with N-terminal Gly-Ser-His scar (enzyme)
chain: GSHMKFPGKRKSKHYFPVNARDPLLQQFQPENETSAAWVVGIDQTLVDIEAKVDDEFIERYGLSAGHSLVIEDDVAEALYQELKQKNLITHQFAGGTIGNTMHNYSVLADDRSVLLGVMCSNIEIGSYAYRYLCNTSSRTDLNYLQGVDGPIGRCFTLIGESGERTFAISPGHMNQLRAESIPEDVIAGASALVLTSYLVRCKPGEPMPEATMKAIEYAKKYNVPVVLTLGTKFVIAENPQWWQQFLKDHVSILAMNEDEAEALTGESDPLLASDKALDWVDLVLCTAGPIGLYMAGFTEDEAKRKTQHPLLPGAIAEFNQYEFSRAMRHKDCQNPLRVYSHIAPYMGGPEKIMNTNGAGDGALAALLHDITANSYHRSNVPNSSKHKFTWLTYSSLAQVCKYANRVSYQVLNQHSPRLTRGLPEREDSLEESYWDR
binding result (crystal structure): binds
